From patent EP1103545B1, “2-(3,5-Bis-trifluoromethyl-phenyl)-N-methyl-N-(6-morpholin-4-yl-4-o-tolyl-pyridin-3-yl)-isobutyramide” (F. HOFFMANN-LA ROCHE AG, priority 1999, dated 2001)

Experiments:
[1] = test system: foot-tapping behaviour induced in Gerbils; test: Foot-tapping behaviour induced by i.c.v. injection of an NK1 receptor agonist; type: in vivo
emesis induced in Ferets = test: Emesis induced by various emetogens; type: in vivo
NK3 receptors = NK3 receptors (Homo sapiens, UniProt P29371); conditions: binding
[2] = test system: motion sickness in the suncus murinus; test: Model of motion sickness; type: in vivo; conditions: po
NK2 receptors = NK2 receptors (Homo sapiens, UniProt P21452); conditions: binding
[3] = target: T1, recombinant human NK1 receptor (Homo sapiens, UniProt P25103); test: Substance P induced Ca2+ influx in CHO cells (FLIPR), Schild analysis; type: cell-based
T1 construct: expressed in transfected cells; host or cells: CHO cells
Excerpt: The activity in vitro was examined by studying its effect on substance P induced Ca^2+ influxes in CHO cells expressing the recombinant human NK1 receptor. In these cells, substance P causes a concentration dependent influx of Ca^2+ which can be measured using FLIPR technology.

T1 sequence (P25103 whole entry): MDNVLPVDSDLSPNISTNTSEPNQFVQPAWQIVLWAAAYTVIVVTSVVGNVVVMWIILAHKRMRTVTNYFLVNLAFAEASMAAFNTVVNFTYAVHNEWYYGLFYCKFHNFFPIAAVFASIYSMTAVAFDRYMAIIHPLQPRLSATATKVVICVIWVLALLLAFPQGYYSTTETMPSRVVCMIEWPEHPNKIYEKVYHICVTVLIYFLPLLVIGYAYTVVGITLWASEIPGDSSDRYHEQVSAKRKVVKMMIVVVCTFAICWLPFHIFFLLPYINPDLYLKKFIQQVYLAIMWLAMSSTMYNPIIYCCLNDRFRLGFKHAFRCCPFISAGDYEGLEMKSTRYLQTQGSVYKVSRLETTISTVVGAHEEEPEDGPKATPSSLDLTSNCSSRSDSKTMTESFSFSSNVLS
Chain of NK3 receptors (P29371 whole entry): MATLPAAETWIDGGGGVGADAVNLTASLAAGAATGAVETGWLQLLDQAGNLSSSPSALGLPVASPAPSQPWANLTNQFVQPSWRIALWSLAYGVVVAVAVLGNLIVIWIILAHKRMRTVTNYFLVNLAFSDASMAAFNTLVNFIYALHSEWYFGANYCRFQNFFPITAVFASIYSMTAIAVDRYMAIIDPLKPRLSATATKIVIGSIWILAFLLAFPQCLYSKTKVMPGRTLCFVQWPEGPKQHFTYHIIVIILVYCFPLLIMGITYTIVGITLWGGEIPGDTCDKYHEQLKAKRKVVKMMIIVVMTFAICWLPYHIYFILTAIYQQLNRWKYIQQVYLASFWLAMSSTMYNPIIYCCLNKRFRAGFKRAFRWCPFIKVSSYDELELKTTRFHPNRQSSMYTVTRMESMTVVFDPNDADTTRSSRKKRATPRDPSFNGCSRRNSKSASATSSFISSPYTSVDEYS
Chain of NK2 receptors (P21452 whole entry): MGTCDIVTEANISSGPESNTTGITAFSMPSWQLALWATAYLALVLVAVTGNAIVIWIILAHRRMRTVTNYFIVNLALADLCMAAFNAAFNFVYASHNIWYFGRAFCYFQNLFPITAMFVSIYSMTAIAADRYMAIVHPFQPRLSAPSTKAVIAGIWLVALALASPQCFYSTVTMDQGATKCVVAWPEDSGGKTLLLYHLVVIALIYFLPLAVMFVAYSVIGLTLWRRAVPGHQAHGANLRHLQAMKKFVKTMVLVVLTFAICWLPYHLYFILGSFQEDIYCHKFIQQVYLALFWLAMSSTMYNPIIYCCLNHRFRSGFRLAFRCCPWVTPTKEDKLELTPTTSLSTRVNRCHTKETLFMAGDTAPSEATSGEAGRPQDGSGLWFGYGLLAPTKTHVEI

Cc1ccccc1-c1cc(N2CCOCC2)ncc1N(C)C(=O)C(C)(C)c1cc(C(F)(F)F)cc(C(F)(F)F)c1 [compound of formula I, 2-(3,5-Bis-trifluoromethyl-phenyl)-N-methyl-N-(6-morpholin-4-yl-4-o-tolyl-pyridin-3-yl)-isobutyramide]
selectivity for the NK1 receptor compared to over 50 other binding sites: over 2 orders of magnitude | total plasma concentration required to completely block the foot-tapping behaviour ([1]; Gerbils): 10 ng/mL | functional half life ([1]; Gerbils, persistence of antagonism of foot-tapping): 8 h | ED50 ([1]; Meriones unguiculatus, po, read-out: dose calculated to inhibit 50 % of the foot-tapping behaviour): 0.2 mg/kg | emesis induced by all emetogens (emesis induced in Ferets; 0.3 mg/kg p.o. 2 hours before emetogen (apomorphine, morphine, ipecacuanha, cisplatin, CuSO4)): completely blocked | ED50 (emesis induced in Ferets; Mustela putorius, po, apomorphine-induced emesis): 0.1 mg/kg | selectivity for the NK1 receptor compared to NK3 receptors (NK3 receptors): over 2 orders of magnitude | ED50 [2]: 0.2 mg/kg | selectivity for the NK1 receptor compared to NK2 receptors (NK2 receptors): over 2 orders of magnitude | slope of the Schild regression [3]: 1.1 | Kb ([3]; Schild plot, read-out: antagonist affinity (pA2) (converted)): 1.26 nM
